In ChEMBL document CHEMBL2406934, “Orally available and efficacious α4β1/α4β7 integrin inhibitors” (Bioorg Med Chem Lett, 2013):
Values belong to the compound of their own block, whether it stands above or below them. Calls of active or inactive are those of the source. The calls are words filed in the database; no cut-off is given here.

How the values were obtained:
[1] = Plasma concentration in HLA-B27 rat at 100 mg/kg, po bid administered for 11 days measured 12 hrs post last dose; format: ADME, organism-based; design: dose 100 mg/kg, route oral
Cavia porcellus = assay: Reduction on allergenic encephalomyelitis guinea pig EAE model at 300 mg/kg, po bid; format: functional, organism-based; design: dose 300 mg/kg
Liver microsomes [2] = assay: Drug metabolism in human liver microsomes assessed as (S)-2-(2-(ethylamino)-5-(N-isopropylmethylsulfonamido)pyrimidin-4-ylamino)-3-(4-(pyrrolidine-1-carbonyloxy)phenyl)propanoic acid synthesis; format: ADME, Microsome
Liver microsomes [3] = assay: Drug metabolism in rat liver microsomes assessed as (S)-2-(2-(ethylamino)-5-(N-isopropylmethylsulfonamido)pyrimidin-4-ylamino)-3-(4-(pyrrolidine-1-carbonyloxy)phenyl)propanoic acid synthesis; format: ADME, Microsome
[4] = Plasma concentration in rat at 1000 mg/kg, po administered for 10 days measured 24 hrs post last dose; format: ADME, organism-based; design: dose 1000 mg/kg, route oral
[5] = Plasma concentration in rat at 300 mg/kg, po administered for 10 days measured 24 hrs post last dose; format: ADME, organism-based; design: dose 300 mg/kg, route oral
[6] = Plasma concentration in rat at 100 mg/kg, po administered for 10 days measured 24 hrs post last dose; format: ADME, organism-based; design: dose 100 mg/kg, route oral
[7] = Plasma concentration in rat at 30 mg/kg, po administered for 10 days measured 24 hrs post last dose; format: ADME, organism-based; design: dose 30 mg/kg, route oral
Rattus norvegicus = assay: Toxicity in rat assessed as weight gain at 1 to 1000 mg/kg, po after 10 days; format: organism-based; design: dose 1-1000 mg/kg, route oral; settings: in vivo, 240 h
[8] = Plasma concentration in rat at 10 mg/kg, po administered for 10 days measured 24 hrs post last dose; format: ADME, organism-based; design: dose 10 mg/kg, route oral
[9] = Plasma concentration in rat at 1000 mg/kg, po after 24 hrs; format: ADME, organism-based; design: dose 1000 mg/kg, route oral
[10] = Plasma concentration in rat at 100 mg/kg, po after 24 hrs; format: ADME, organism-based; design: dose 100 mg/kg, route oral
[11] = Plasma concentration in rat at 300 mg/kg, po after 24 hrs; format: ADME, organism-based; design: dose 300 mg/kg, route oral
[12] = Plasma concentration in rat at 30 mg/kg, po after 24 hrs; format: ADME, organism-based; design: dose 30 mg/kg, route oral
[13] = Plasma concentration in rat at 10 mg/kg, po after 24 hrs; format: ADME, organism-based; design: dose 10 mg/kg, route oral
[14] = Plasma concentration in rat at 3 mg/kg, po after 24 hrs; format: ADME, organism-based; design: dose 3 mg/kg, route oral
[15] = AUC (0 to infinity) in rat at 1000 mg/kg, po; format: ADME, organism-based; design: time infinity, dose 1000 mg/kg, route oral; settings: plasma
[16] = AUC (0 to infinity) in rat at 300 mg/kg, po; format: ADME, organism-based; design: time infinity, dose 300 mg/kg, route oral; settings: plasma
[17] = AUC (0 to infinity) in rat at 30 mg/kg, po; format: ADME, organism-based; design: time infinity, dose 30 mg/kg, route oral; settings: plasma
[18] = AUC (0 to infinity) in rat at 100 mg/kg, po; format: ADME, organism-based; design: time infinity, dose 100 mg/kg, route oral; settings: plasma
[19] = AUC (0 to infinity) in rat at 10 mg/kg, po; format: ADME, organism-based; design: time infinity, dose 10 mg/kg, route oral; settings: plasma
[20] = AUC (0 to infinity) in rat at 3 mg/kg, po; format: ADME, organism-based; design: time infinity, dose 3 mg/kg, route oral; settings: plasma
[21] = Cmax in rat at 1000 mg/kg, po; format: ADME, organism-based; design: dose 1000 mg/kg, route oral; settings: in vivo
[22] = AUC (0 to infinity) in rat at 1 mg/kg, po; format: ADME, organism-based; design: time infinity, dose 1 mg/kg, route oral; settings: plasma
[23] = Cmax in rat at 300 mg/kg, po; format: ADME, organism-based; design: dose 300 mg/kg, route oral; settings: in vivo
[24] = Cmax in rat at 30 mg/kg, po; format: ADME, organism-based; design: dose 30 mg/kg, route oral; settings: in vivo
[25] = Cmax in rat at 100 mg/kg, po; format: ADME, organism-based; design: dose 100 mg/kg, route oral; settings: in vivo
[26] = Cmax in rat at 3 mg/kg, po; format: ADME, organism-based; design: dose 3 mg/kg, route oral; settings: in vivo
[27] = Cmax in rat at 10 mg/kg, po; format: ADME, organism-based; design: dose 10 mg/kg, route oral; settings: in vivo
[28] = Volume of distribution at steady state in iv dosed rat; format: ADME, organism-based; settings: in vivo, read-out: Vdss
[29] = Oral bioavailability in rat; format: ADME, organism-based; settings: in vivo
[30] = Cmax in rat at 1 mg/kg, po; format: ADME, organism-based; design: dose 1 mg/kg, route oral; settings: in vivo
[31] = Apparent volume of distribution in iv dosed rat; format: ADME, organism-based; settings: in vivo, read-out: Vz
[32] = Clearance in iv dosed rat; format: ADME, organism-based; settings: in vivo
[33] = Half life in iv dosed rat; format: ADME, organism-based; settings: in vivo
[34] = AUC (0 to infinity) in po dosed rat; format: ADME, organism-based; design: route oral, time infinity; settings: plasma
[35] = Cmax in po dosed rat; format: ADME, organism-based; design: route oral; settings: in vivo
[36] = Plasma concentration in rat at 1 mg/kg, po after 24 hrs; format: ADME, organism-based; design: dose 1 mg/kg, route oral
Integrin alpha-4/beta-1 [37] = target: T1, Integrin alpha-4/beta-1 (Homo sapiens, UniProt P05556+P13612); assay: Inhibition of alpha4beta1 integrin-mediated human jurkat cell adhesion to fibronectin in absence of human serum albumin; format: protein-complex assay
T1 sequence (P05556 whole entry): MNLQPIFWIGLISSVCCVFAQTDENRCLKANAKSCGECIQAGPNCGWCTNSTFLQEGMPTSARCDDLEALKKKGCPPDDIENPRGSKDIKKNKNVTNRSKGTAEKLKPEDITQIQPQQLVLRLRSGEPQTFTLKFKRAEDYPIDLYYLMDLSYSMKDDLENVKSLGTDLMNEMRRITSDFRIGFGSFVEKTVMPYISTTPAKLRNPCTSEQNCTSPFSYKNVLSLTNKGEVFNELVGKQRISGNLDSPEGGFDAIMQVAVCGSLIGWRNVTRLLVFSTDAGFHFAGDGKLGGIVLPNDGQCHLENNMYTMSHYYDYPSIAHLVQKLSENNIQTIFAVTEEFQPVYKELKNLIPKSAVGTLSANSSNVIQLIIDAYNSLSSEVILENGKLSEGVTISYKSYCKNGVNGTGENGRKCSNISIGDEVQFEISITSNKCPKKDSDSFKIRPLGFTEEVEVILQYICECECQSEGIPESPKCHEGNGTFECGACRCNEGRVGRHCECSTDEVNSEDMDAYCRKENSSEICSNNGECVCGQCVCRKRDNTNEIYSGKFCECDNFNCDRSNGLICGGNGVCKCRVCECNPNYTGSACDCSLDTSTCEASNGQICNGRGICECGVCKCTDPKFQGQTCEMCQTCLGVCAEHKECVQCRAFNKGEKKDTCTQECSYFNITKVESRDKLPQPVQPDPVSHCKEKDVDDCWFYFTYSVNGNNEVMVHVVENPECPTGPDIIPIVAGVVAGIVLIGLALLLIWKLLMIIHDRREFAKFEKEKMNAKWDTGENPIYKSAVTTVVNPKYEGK
T1 sequence (P13612 whole entry): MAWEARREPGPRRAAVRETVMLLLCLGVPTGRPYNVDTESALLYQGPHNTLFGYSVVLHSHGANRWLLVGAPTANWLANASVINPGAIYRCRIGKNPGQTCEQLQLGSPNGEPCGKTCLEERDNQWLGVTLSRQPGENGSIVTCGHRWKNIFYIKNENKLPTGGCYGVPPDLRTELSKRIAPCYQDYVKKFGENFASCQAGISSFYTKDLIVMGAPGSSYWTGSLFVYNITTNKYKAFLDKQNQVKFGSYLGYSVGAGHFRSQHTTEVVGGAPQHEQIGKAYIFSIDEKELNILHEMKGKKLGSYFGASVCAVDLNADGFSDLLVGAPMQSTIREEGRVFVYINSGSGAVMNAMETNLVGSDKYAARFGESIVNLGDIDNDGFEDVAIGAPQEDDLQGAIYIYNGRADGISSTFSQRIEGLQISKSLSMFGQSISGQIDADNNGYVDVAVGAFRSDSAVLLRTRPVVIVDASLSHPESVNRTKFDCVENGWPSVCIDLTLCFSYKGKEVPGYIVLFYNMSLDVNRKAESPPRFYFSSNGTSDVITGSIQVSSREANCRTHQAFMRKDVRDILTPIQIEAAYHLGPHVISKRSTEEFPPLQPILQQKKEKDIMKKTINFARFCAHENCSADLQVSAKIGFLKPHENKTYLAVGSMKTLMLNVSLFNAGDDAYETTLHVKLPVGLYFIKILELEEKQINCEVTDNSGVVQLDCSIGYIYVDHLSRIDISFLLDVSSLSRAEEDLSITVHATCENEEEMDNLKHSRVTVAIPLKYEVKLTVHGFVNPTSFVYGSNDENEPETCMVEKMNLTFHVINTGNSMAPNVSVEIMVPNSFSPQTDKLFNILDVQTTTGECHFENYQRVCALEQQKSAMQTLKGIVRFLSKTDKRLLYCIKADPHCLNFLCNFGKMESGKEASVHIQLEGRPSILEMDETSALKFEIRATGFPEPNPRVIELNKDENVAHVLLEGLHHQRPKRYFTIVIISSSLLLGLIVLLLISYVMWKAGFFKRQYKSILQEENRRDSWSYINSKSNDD

Integrin alpha-4/beta-1 [38] = target: T1, Integrin alpha-4/beta-1; assay: Inhibition of alpha4beta1 integrin-mediated human jurkat cell adhesion to fibronectin in presence of human serum albumin; format: protein-complex assay

concentration at 12 h [1]: 2500 ng/mL | Drug metabolism (Liver microsomes [2]): Active | Drug metabolism (Liver microsomes [3]): Active | concentration at 24 h [4]: 100000 ng/mL | concentration at 24 h [5]: 43100 ng/mL | concentration at 24 h [6]: 28500 ng/mL | concentration at 24 h [7]: 13000 ng/mL | concentration at 24 h [8]: 3380 ng/mL | concentration at 24 h [9]: 71400 ng/mL | concentration at 24 h [10]: 13600 ng/mL | concentration at 24 h [11]: 46200 ng/mL | concentration at 24 h [12]: 4250 ng/mL | concentration at 24 h [13]: 1010 ng/mL | concentration at 24 h [14]: 358 ng/mL | AUC(0-inf) [15]: 4480 µg·h/mL | AUC(0-inf) [16]: 2980 µg·h/mL | AUC(0-inf) [17]: 275 µg·h/mL | AUC(0-inf) [18]: 1260 µg·h/mL | AUC(0-inf) [19]: 76 µg·h/mL | AUC(0-inf) [20]: 24.2 µg·h/mL | Cmax [21]: 214000 ng/mL | AUC(0-inf) [22]: 5.9 µg·h/mL | Cmax [23]: 153000 ng/mL | Cmax [24]: 17400 ng/mL | Cmax [25]: 105000 ng/mL | Cmax [26]: 1100 ng/mL | Cmax [27]: 3600 ng/mL | Vd [28]: 0.068 L/kg | bioavailability [29]: 17% | Cmax [30]: 230 ng/mL | Vd [31]: 0.108 L/kg | clearance [32]: 0.172 mL/min/kg | half-life [33]: 7.3 h | AUC(0-inf) [34]: 221 µg·h/mL | Cmax [35]: 16500 ng/mL | concentration at 24 h [36]: 110 ng/mL
SMILES: CCN(CC)c1ncc(N(C(C)C)S(C)(=O)=O)c(N[C@@H](Cc2ccc(OC(=O)N3CCCC3)cc2)C(=O)O)n1
Activity (Cavia porcellus): inactive | Activity (Rattus norvegicus): Non-toxic

AUC(0-inf) [34]: 6.8 µg·h/mL | Cmax [35]: 1400 ng/mL | IC50 (Integrin alpha-4/beta-1 [37]): 23.3 nM | IC50 (Integrin alpha-4/beta-1 [38]): 4820 nM
SMILES: CCNc1ncc(N(C(C)C)S(C)(=O)=O)c(N[C@@H](Cc2ccc(OC(=O)N3CCCC3)cc2)C(=O)O)n1
